Earlier results in patent publication US5631296A, “Drugs containing S(+)-ibuprofen” (priority 1992, dated 1997).

How the values were obtained:
serum proteins = conditions: stereoselective
arthritic patients = conditions: daily dose well below the conventional racemate dosage
[1] = tested on: cyclooxygenase subunit of the enzyme prostaglandin synthease
skin inflammation = conditions: healthy test subjects, relative to racemate
[2] = comparatively low dosage
humans = conditions: U.S. Pat. No. 4,851,444

Row | SMILES | toxic effects directly attributable to accumulation of R(-) in fatty tissue (chronic administration of the racemate) | accumulation of the R(-) enantiomer in the fatty tissue (in vivo) | binding to the serum proteins (serum proteins) | therapeutic effect in arthritic patients (arthritic patients) | inhibition of prostaglandin synthesis (mechanism of action found in vitro) [1] | analgesic action (rhesus monkeys) | dose-effect curve in skin inflammation model (skin inflammation) | therapeutic action relative to the racemate [2] | onset and intensity of analgesic effect versus identical amounts of the racemate (humans)
1 | CC(C)Cc1ccc(C(C)C(=O)O)cc1 (racemic) [racemate, 2-(4-isobutylphenyl)propionic acid] | no toxic effects have so far been observed | leads to an accumulation of the R(-) enantiomer in the fatty tissue |  |  |  |  |  |  | 
2 | CC(C)Cc1ccc([C@@H](C)C(=O)O)cc1 [R(-)-ibuprofen] |  |  | competing for the binding site |  |  |  |  |  | 
3 | CC(C)Cc1ccc([C@H](C)C(=O)O)cc1 [S(+)-ibuprofen] |  |  | competing for the binding site | good therapeutic effect | found in vitro only for the S(+) enantiomer | stronger analgesic action | shifted towards lower dosage relative to that of the racemate | the same therapeutic action as the racemate | starts more rapidly and is more intense
